Assay results published in BindingDB's records for patent US20260007681 (University Of Michigan, 2026).

Molecular target: DNA damage-binding protein 1/Protein cereblon (Homo sapiens, UniProt Q96SW2)
Experimental: The binding potency was determined using H-TRF assay technology (Perkin Elmer). Compounds were serially diluted in DMSO and 0.2 μL volume was transferred to white 384-well plate.

Sequence of DNA damage-binding protein 1/Protein cereblon (Q16531 whole entry): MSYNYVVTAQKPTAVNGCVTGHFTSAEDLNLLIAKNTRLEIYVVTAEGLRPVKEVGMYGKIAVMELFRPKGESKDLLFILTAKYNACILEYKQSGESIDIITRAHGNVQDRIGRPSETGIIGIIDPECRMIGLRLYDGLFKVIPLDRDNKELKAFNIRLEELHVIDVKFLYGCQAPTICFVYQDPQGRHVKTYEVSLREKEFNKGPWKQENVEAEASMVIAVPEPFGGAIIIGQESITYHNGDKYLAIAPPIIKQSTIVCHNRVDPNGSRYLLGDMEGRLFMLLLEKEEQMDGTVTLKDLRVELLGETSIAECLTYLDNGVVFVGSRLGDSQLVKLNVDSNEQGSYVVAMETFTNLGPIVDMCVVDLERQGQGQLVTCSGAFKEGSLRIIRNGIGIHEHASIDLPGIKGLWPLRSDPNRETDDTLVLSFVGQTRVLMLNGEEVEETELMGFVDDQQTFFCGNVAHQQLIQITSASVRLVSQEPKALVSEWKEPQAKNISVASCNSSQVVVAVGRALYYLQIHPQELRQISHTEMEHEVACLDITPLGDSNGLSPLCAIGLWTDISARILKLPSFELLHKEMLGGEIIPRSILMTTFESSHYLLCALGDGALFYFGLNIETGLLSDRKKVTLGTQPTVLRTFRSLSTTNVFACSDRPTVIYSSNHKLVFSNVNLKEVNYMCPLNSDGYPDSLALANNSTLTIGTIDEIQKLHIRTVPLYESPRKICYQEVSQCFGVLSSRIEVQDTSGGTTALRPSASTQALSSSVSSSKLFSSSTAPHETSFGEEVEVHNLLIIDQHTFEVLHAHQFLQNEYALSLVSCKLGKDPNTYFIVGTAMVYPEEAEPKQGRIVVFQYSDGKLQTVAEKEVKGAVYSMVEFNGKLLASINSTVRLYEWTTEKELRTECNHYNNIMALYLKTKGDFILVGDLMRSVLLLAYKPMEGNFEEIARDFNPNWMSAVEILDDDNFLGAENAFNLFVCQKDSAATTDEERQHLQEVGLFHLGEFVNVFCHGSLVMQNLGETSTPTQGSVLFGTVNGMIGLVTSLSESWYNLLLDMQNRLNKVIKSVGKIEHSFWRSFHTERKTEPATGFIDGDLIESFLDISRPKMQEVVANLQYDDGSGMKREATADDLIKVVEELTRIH
Sequence of DNA damage-binding protein 1/Protein cereblon (Q96SW2 whole entry): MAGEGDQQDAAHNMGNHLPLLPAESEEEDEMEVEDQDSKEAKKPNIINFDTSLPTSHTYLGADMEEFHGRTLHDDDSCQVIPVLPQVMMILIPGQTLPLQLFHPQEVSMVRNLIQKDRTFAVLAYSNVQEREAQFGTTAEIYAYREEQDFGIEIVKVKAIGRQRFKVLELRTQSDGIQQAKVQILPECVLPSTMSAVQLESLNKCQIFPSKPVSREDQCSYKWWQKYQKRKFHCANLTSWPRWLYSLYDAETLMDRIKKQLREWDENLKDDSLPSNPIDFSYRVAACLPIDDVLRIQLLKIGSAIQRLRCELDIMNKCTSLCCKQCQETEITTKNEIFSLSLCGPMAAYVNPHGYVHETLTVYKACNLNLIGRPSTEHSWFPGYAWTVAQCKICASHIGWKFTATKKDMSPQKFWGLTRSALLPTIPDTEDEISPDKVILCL

Q: How did the IC50 turn out when `C[C@@H]1Cc2c([nH]c3ccccc23)[C@@H](c2cnc(N3CCC(N4CCN(c5ccc(NC6CCC(=O)NC6=O)cc5F)CC4)CC3)nc2)N1CC(C)(C)F` (stereo partly specified) [US20260007681, Compound A2] was run?
A: 500 to 5000 nM
